Experimental findings from patent publication US6602700B1, “Phenolic acid esterases, coding sequences and methods” (University of Georgia Research Foundation, Inc., priority 1998, dated 2003) are described below.

In this experiment the target is T1, FAE (Acetivibrio thermocellus, UniProt P10478).
T1 construct: made in house; host or cells: E. coli BL21(DE3)
T1 sequence (P10478 20-286): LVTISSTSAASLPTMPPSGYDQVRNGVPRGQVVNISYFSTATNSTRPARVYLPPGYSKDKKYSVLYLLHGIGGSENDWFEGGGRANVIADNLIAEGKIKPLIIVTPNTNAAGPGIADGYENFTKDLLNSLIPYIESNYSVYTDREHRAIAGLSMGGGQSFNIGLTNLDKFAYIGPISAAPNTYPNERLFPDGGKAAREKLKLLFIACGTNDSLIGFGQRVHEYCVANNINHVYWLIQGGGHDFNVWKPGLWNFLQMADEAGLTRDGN
The experiment can be described thus: Inhibition of XynZ FAE by ferulic acid and sugars. Type of experiment: biochemical, Clostridium thermocellum.
Regarding `COc1cc(/C=C/C(=O)O)ccc1O` [ferulic acid], the “Inhibition of FAE” value was “inhibited”.
To `O=C[C@@H](O)[C@H](O)[C@H](O)CO` [arabinose] belongs “not”; to `O=C[C@H](O)[C@@H](O)[C@H](O)CO` [xylose], “not”.
